# Like-named read-outs stand apart in the source and are kept apart here.
# Tests used:
# [1] = test system: Ba/F3-FL-TYK2-P760L cells; assay: Anti-proliferative assay in engineered Ba/F3 cells (Cell-Titer Glo, 72 h); format: cell-based; conditions: 72 h compound treatment, concentration that causes 50% growth inhibition, read-out: Baf3-FL-T2P760L
# In short: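 Ba/F3 cells carrying Tel-dimerization/JAK kinase fusion, IL-3-independent, in RPMI-1640 + 10% FBS; 9-point 3-fold dilutions from 20 µM (0.1% DMSO) added after 24 h, 72 h at 37 °C. Viability by Cell-Titer Glo ATP luminescence; % inhibition versus DMSO cells, blank-corrected, giving IC50.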
# [2] = molecular target: T1, JAK1-JH2 domain (Homo sapiens, UniProt P23458); assay: Binding activity test for JH2 domain of JAK1 (Tb-antibody/tracer FRET); conditions: JH2 domain enzyme; 60 min at 25°C, then 4°C overnight; read-out: JAK1 JH2 Binding IC50
# T1 construct: JAK1-JH2 domain or TYK2-JH2 domain enzyme in assay buffer
# In short: (§1)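 Competitive TR-FRET binding: compounds dispensed as an 11-point 3-fold dilution series, then Tb-labelled antibody and tracer added to the JH2 protein system. Incubated at 25°C, then overnight at 4°C; FRET signal read on Envision and IC50 (nM) derived.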
# [3] = test system: pSTAT1; assay: Phosphorylation inhibition of STAT in human whole blood (IFN-alpha stimulated, flow cytometry); format: cell-based; conditions: T-cell, 20 min, IFN-alpha stimulation 20 mins, CD3 T cells, read-out: pSTAT1 inhibition in hWB (IC50)
# Description: The inhibitory potential of test articles in human whole blood assay was evaluated by the method of flow cytometry.
# IFN-alpha will activate JAK1 and TYK2 kinase in T cells by binding to IFN receptors, and then lead to phosphorylation of STAT1 and STAT2. The phosphorylated STAT1 enter nuclear and promote transcription and expression of IFN-gamma. To evaluate the efficacy of TYK2i in T cells, freshly collected human whole blood will be stimulated with certain unit of human IFN-alpha (Universal Type I IFN(1MU), R&D, 11200-2) for 20 mins in incubator. After stimulation, fix cells with Phosflow™ Fix Buffer I (BD, 557870), and then collect fixed cells by centrifugation (500 g, 8min). Wash cells once with pre-cooled PBS, and then permeabilize cells with cold Perm Buffer III buffer (BD, 558050) for 45 mins on ice. Collect cells by centrifugation (600 g, 8min) and washed twice with cold PBS. Stain cells with anti-human CD3(FITC Mouse Anti-Human CD3, BD, 555332) and anti-pSTAT1_Y701(Alexa Fluor 647 Mouse Anti-Stat1 (pY701), BD, 612597) antibodies. Detect pSTAT1 by flow cytometry (CytoFlex S) and analyze data with FlowJo and GraphPad Prism 8 software. IC50 values of test articles were determined using 4- parameter logistic equation.
# [4] = Microsomal metabolic stability assay; format: in vitro ADME; conditions: human, liver microsomes, pH 7.4, 0.5 mg/mL microsomal protein, 1 µM test article, 2 mM NADPH; for microsomal CLint at 1 µM: read-out: Human LM Clint; for half-life at 1 µM: read-out: Human LM T1/2
# In short: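 Test or control compound (1 µM) incubated with microsomes (0.5 mg/mL protein) in 100 mM potassium phosphate pH 7.4, 1.0 mM EDTA at 37°C, started with NADPH regenerating system (2 mM NADPH). Sampled at 0, 5, 15, 30, 45 min, acetonitrile-quenched, LC/MS/MS. T1/2 from ln %remaining vs time slope; CLint = 0.693/T1/2 per mg protein/mL.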
# [5] = molecular target: T2, TYK2-JH2 domain (Homo sapiens, UniProt P29597); assay: Binding activity test for JH2 domain of TYK2 (Tb-antibody/tracer FRET); conditions: for IC50: JH2 domain enzyme, 60 min at 25°C, then 4°C overnight, read-out: TYK2 JH2 Binding IC50; for JAK1/TYK2 selectivity: ratio of JAK1 JH2 to TYK2 JH2 binding IC50
# T2 construct: JAK1-JH2 domain or TYK2-JH2 domain enzyme in assay buffer
# In short: as §1
# [6] = Kinetic solubility; format: physicochemical; conditions: phosphate buffer, pH 7.4, aqueous buffer, kinetic from dmso stock, 100 mM pH 7.4 phosphate buffer, 1% DMSO, room temperature, read-out: Kinetics Solubility_PBS7.4
# Description: Aliquots of 8 µL of reference and test compound stock solutions (10 mM/5 mM) are added into 792 µL of 100 mM pH 7.4 phosphate buffer. The final DMSO concentration is 1%. Sample tubes are shaken for 2 hours at 1000 rpm at room temperature. Samples are centrifuged at 12000 rpm for 10 min to precipitate un-dissolved particles. And transfer the supernatants to a new tube or plate. Add 5 µL of samples (no diluted, 10 times diluted, and 100 times diluted) and standard curve samples to 95 µL of ACN containing IS for LC-MS/MS analysis. Kinetic Solubilities Values of Exemplary Compounds
# [7] = Caco-2 cell permeability; format: in vitro ADME; conditions: human, Caco-2, 10.0 µM, no p-gp inhibitor; for Papp A→B at 90 min, 10 µM: A to B; for Papp B→A at 90 min, 10 µM: B to A; for efflux ratio at 90 min, 10 µM: read-out: Efflux Ratio: Papp(B-A)/Papp(A-B)
# Description: Compounds permeability was evaluated using Caco-2 cell lines. HBSS buffer was used as transfer buffer. Appropriate dosing and receiver solutions were applied to the donor and receiver chambers to initiate the transport assay in apical to basolateral (A to B) or basolateral to apical (B to A) directions. Compounds were tested at 10.0 µM in the absence of p-gp inhibitor bidirectionally in duplicates. After incubation at 37°C for 90 mins, donor and receiver samples were analyzed by LC-MS/MS. The intestinal absorption potential was assessed using Papp value and efflux ratio.
# [8] = Brain pharmacokinetic studies in rats; format: in vivo, Sprague-Dawley rats
# Description: Pharmacokinetic profiles of test articles were evaluated in fasted Sprague-Dawley rats. Different kinds of formulations were designed to ensure test articles fully dissolved and wouldn't precipitate in 1:10 SGF or FaSSIF dilution. Typically, Rats were dosed with 3 mg/kg and 5 mg/kg by intravenous injection and oral gavage, respectively. The animal was restrained manually at the designated time points, approximately 150 µL of blood sample was collected via jugular vein for serial bleeding into K2EDTA tubes. The blood samples were maintained in wet ice first and centrifuged to obtain plasma (2000g, 4°C, 5 min) within 30 minutes post sampling. Anesthetizing the rat with the Isoflurane vaporizer to 2%~3% and place its back on the operation table. Spread the animal limbs and pin the limbs on the operation table. Make a cut along the sternum about 4cm long, low enough to expose the sternum's end. Expose the heart and use a 25-gauge needle connected with a 20 mL syringe filled with 20 mL of cold saline to pierce the left ventricle. Maintain the placement of the needle, and slowly push the syringe plunger to wash the brain with saline. The perfusion will be finished within about 2 min and then take the brain out of the body carefully without damaging the tissue. Dry the tissue on filtrate paper, which should be placed on ice, and then weigh the brain tissue and store at -70 °C and analyzed by LC/MS/MS for quantification. PK parameter values, including, but not necessarily limited to, the maximum plasma concentrations (Cmax), and the area under the plasma concentration vs. time curve (AUC) from time zero to 24-hour (AUC0-24h) were determined using WinNonlin program. Table 13. Systemic Pharmacokinetic Parameters in Sprague-Dawley Rats
# T2 sequence (P29597 589-875 limits assumed): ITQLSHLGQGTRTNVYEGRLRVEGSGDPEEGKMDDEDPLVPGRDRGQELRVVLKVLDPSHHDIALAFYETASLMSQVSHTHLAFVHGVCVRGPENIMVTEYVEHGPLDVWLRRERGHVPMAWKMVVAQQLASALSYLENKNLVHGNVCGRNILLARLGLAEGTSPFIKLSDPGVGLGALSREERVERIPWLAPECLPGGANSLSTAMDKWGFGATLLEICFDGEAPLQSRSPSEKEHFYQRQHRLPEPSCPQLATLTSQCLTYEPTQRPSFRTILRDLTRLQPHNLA
# T1 sequence (P23458 583-855 limits assumed): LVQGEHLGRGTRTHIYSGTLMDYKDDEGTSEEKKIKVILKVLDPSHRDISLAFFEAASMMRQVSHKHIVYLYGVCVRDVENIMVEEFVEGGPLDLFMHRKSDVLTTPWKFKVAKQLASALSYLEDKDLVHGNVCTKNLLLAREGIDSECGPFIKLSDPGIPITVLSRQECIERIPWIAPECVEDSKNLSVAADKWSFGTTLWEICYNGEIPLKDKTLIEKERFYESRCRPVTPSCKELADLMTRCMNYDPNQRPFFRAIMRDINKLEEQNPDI
Structure (SMILES),"IC50 ([1]; Mus musculus, BaF3, 72 h)",IC50 [2],IC50 [3],microsomal CLint at 1 µM [4],half-life at 1 µM [4],IC50 [5],JAK1/TYK2 selectivity [5],solubility kinetic at 2 h [6],"Papp A→B at 90 min, 10 µM [7]","Papp B→A at 90 min, 10 µM [7]","efflux ratio at 90 min, 10 µM [7]","half-life ([8]; Sprague-Dawley, rat, brain, rats, iv, 3 mg/kg, solution)","Kp ([8]; Sprague-Dawley, rat, brain, rats, iv, 3 mg/kg, solution, read-out: Brain AUC/Systemic AUC)","half-life ([8]; Sprague-Dawley, rat, systemic (plasma), rats, iv, 3 mg/kg, solution)","AUC ([8]; Sprague-Dawley, rat, systemic (plasma), rats, iv, 3 mg/kg, solution, read-out: AUC)","AUC ([8]; brain, rats, iv, 3 mg/kg, solution)",brain exposure in Rats ([8]; result in words),IC50 [1]
"[2H]C([2H])([2H])NC(=O)c1cnc(Nc2ccc(F)cn2)cc1Nc1cnn2ccc([C@H](O)C(F)(F)F)c(OC)c12 [Example 24, (S)-6-((5-fluoropyridin-2-yl)amino)-4-((4-methoxy-5-(2,2,2-trifluoro-1-hydroxyethyl)pyrazolo[1,5-a]pyridin-3-yl)amino)-N-(methyl-d3)nicotinamide]",3.87 nM,18.6 nM,34.6 nM,24.6 µL/min/mg,0.937 h,0.066 nM,281.8,10.4 µM,–,–,–,–,–,–,–,–,–,–
"[2H]C([2H])([2H])NC(=O)c1cnc(NC(=O)C2CC2)nc1Nc1cnn2ccc([C@H](O)C(F)(F)F)c(OC)c12 [Example 33, (S)-2-(cyclopropanecarboxamido)-4-((4-methoxy-5-(2,2,2-trifluoro-1-hydroxyethyl)pyrazolo[1,5-a]pyridin-3-yl)amino)-N-(methyl-d3)pyrimidine-5-carboxamide]",16 nM,34.3 nM,–,–,–,0.082 nM,418.3,59.4 µM,0.39 ×10⁻⁶ cm/s,46.5 ×10⁻⁶ cm/s,121,–,–,–,–,–,–,–
"[2H]C([2H])([2H])NC(=O)c1cnc(NC(=O)C2CC2)cc1Nc1cnn2ccc(C(C)O)c(OC)c12 (stereo not shown) [Example 23, 6-(Cyclopropanecarboxamido)-4-((5-(1-hydroxyethyl)-4-methoxypyrazolo[1,5-a]pyridin-3-yl)amino)-N-(methyl-d3)nicotinamide]",166 nM,13.5 nM,–,0.17 µL/min/mg,132 h,0.185 nM,72.7,–,0.46 ×10⁻⁶ cm/s,37.6 ×10⁻⁶ cm/s,82.7,–,–,–,–,–,–,–
"COC(=O)c1cnc(NC(=O)C2CC2)cc1Nc1cnn2ccc([C@H](OC)C(F)(F)F)c(OC)c12 [Example 42, Methyl (S)-6-(cyclopropanecarboxamido)-4-((4-methoxy-5-(2,2,2-trifluoro-1-methoxyethyl)pyrazolo[1,5-a]pyridin-3-yl)amino)nicotinate]",104 nM,79 nM,–,–,–,0.202 nM,391.2,–,–,–,–,15 min,1.99,20.4 min,646 ng·h/mL,1286 ng·h/g,good brain exposure,–
"[2H]C([2H])([2H])NC(=O)c1cnc(NC(=O)C2CC2)cc1Nc1nn(C)c2ccc([C@H](OC)C(F)(F)F)c(OC)c12 [Example 46A, (S)-6-(cyclopropanecarboxamido)-4-((4-methoxy-1-methyl-5-(2,2,2-trifluoro-1-methoxyethyl)-1H-indazol-3-yl)amino)-N-(methyl-d3)nicotinamide]",0.31 nM,3.01 nM,33 nM,–,–,0.074 nM,40.64,8.16 µM,–,–,–,–,–,–,–,–,–,–
"[2H]C([2H])([2H])NC(=O)c1cnc(NC(=O)C2CC23CC3)cc1Nc1cnn2ccc([C@H](O)C(F)(F)F)c(OC)c12 (single isomer, unassigned) [Example 32A, 4-((4-Methoxy-5-((S)-2,2,2-trifluoro-1-hydroxyethyl)pyrazolo[1,5-a]pyridin-3-yl)amino)-N-(methyl-d3)-6-((S*)-spiro[2.2]pentane-1-carboxamido)nicotinamide]",–,18.6 nM,99.4 nM,–,–,0.099 nM,187.6,25.5 µM,–,–,–,–,–,–,–,–,–,33 nM
"[2H]C([2H])([2H])NC(=O)c1cnc(NC(=O)C2CC2)cc1Nc1nn(C)c2ccc(C(O)C(F)(F)F)c(OC)c12 (stereo not shown) [Example 49, 6-(Cyclopropanecarboxamido)-4-((4-methoxy-1-methyl-5-(2,2,2-tritluoro-1-hydroxyethyl)-1H-indazol-3-yl)amino)-N-(methyl-d3)nicotinamide]",0.729 nM,4.1 nM,27.9 nM,15.7 µL/min/mg,1.47 h,0.136 nM,30.13,83 µM,–,–,–,–,–,–,–,–,–,–
"[2H]C([2H])([2H])NC(=O)c1cnc(NC(=O)C2CC2)cc1Nc1cnn2ccc(C)c(OC)c12 [Example 5, 6-(Cyclopropanecarboxamido)-4-((4-methoxy-5-methylpyrazolo[1,5-a]pyridin-3-yl)amino)-N-(methyl-d3)nicotinamide]",32 nM,6.62 nM,139 nM,–,–,0.137 nM,48.3,57.4 µM,–,–,–,–,–,–,–,–,–,–

# — patent publication EP4813463A2, “TYK2 INHIBITORS AND COMPOSITIONS AND METHODS THEREOF” (Lynk Pharmaceuticals Co. Ltd., priority 2023, dated 2024)
